For this data set, the system named is patient suffering from hemicrania continua and ulceritive colitis. The data set can be described thus: Clinical treatment of a patient with hemicrania continua: topical indomethacin patch, and prior oral indomethacin. In kind it is in vivo, human. The method, then:
Typically, the symptom ameliorated by the subject methods is pain associated with the syndrome being treated. In many embodiments, the intensity of pain associated with the syndrome is at least reduced, if not eliminated. Reduction in pain intensity is evaluated according to the protocol described at pages 161-176, and particularly page 172, of “Guidelines for Controlled Trials of Drugs in Cluster Headache,” published by the International Headache Society Committee on Clinical Trials in Cluster Headache. The magnitude of reduction in pain intensity is generally at least about 10%, usually at least about 25% and more usually at least about 50%, where magnitude of reduction may be as high as 75%, 80%, 95% or higher, including a complete cessation of pain, as determined by the assay described above.
The topical formulation described in I, above, was employed to treat a patient suffering from hemicrania continua and ulceritive colitis. The patient suffered from a six-year history of constant right-sided hemicranial pain of mild to moderate severity. Superimposed exacerbations of more intense pain occurred twice weekly and would last up to twelve hours. These painful exacerbations were associated with ipsilateral ptosis, conjunctival injection and lacrimation.
The patient was then treated with the topical application of indomethacin described in I, above, by applying the topical application to the site of maximal pain, i.e. the right forehead and temple. […] The patient was then instructed to reapply the patch twice daily, at twelve hour intervals. […] This was a favorable result compared with other forms of treatment that the patient had previously employed, whereas despite appropriate therapy, the patient's other medical condition worsened in response to oral administration of indomethacin.

Setting [1] is: prior treatment, 25 mg, three times daily.

In the case of `COc1ccc2c(c1)c(CC(=O)O)c(C)n2C(=O)c1ccc(Cl)cc1` [indomethacin, Indomethacin], for the setting “decreased dosage”, the “effect on gastrointestinal symptoms” value was “continued to aggravate the gastrointestinal symptoms” and the “effect on headache syndrome” value is recorded as “did not abolish the headache syndrome”. For the same compound, under setting [1], the effect on pain entry is on record as “complete resolution of pain” and the “effect on patient's ulcerative colitis” value is listed as “significant worsening”.

The record behind these values is US20020143047A1, “Methods for treating indomethacin responsive headaches” (priority 2001, published 2002).
